This is an account of results in US12662482B2 (The Johns Hopkins University, priority 2020, dated 2026).

The structures appear in SMILES notation. Structures can show the parent of a compound that is named as a salt.

One experiment concerns NCI60 cancer cell lines. The following applies: cited from earlier work.
The subject of another experiment is mouse xenograft. Conditions: mouse xenograft assays; cited from earlier work.
In a further experiment the test system is RPA194. Kind of experiment: RPA194 destruction / Pol I inhibition, high-content imaging in A375 cells. Type of experiment: cell-based. Conditions: A375 cells treated for 4 hours, anti-RPA194 immunofluorescence; pIC50 >= 5.02 deemed a Pol I inhibitor. The method, then:
Cell culture: A375 cells (CRL-1619, ATCC) were grown in DMEM (GJBCO) supplemented with […] (GTBCO) in 5% CO2 at 37° C.
Cell treatment and Imaging: 18 hours post-seeding in cell carrier black 384-well plates (PerkinElmer) at 15 000 cells/well, A375 cells were treated for 4 hours with a positive control or test compounds (9 serial semi-log dilutions, top concentration 10 μM). Upon treatment A375 cells were (i) fixed for 15 min at RT with 4% of paraformaldehyde, (ii) permeabilized for 20 min at RT with 0.1-0.5% of NP-40, (iii) incubated with primary antibodies at 4° C.: anti-RPA194 (1:1000-1:1250 dilution, sc-48385, Santa Cruz Biotechnology) and anti-gH2Ax (1:5000 dilution, 81299, Abcam or 1:4000, JBW302, Millipore) (iv) incubated for 1 h at RT with Hoechst (1:5000 dilution, H3570, ThermoFisher) and secondary antibodies: anti-mouse-AlexaFluor488 (1:2000 dilution, A11001, ThermoFisher) and anti-rabbit-AlexaFluor647 (1:2000 dilution, A21443, ThermoFisher) or goat anti-mouse AlexaFluor-594 (1:1000 dilution). Images were acquired on an Operetta CLS High-Content Analysis System (PerkinElmer) (40× objective; 9 fields/well) and processed using the Columbus Image Analysis System (PerkinElmer) or by using Molecular Devices ImageXpress Micro XLS High Content Imager and MetaXpress high-content acquisition and analysis software.
In the table below, (+) is associated with a pIC50 5.02 to 5.8; (++) with pIC50 5.8 to 6.3; and (+++) with a pIC50 above 6.3.

In the case of `CN(C)CCNC(=O)c1cccn2c(=O)c3cc4ccccc4cc3nc12` [BMH-21, 12H-Benzo[g]pyrido[2,1-b]quinazoline-4-carboxamide, N-[2(dimethylamino)ethyl]-12-oxo], in the experiment with NCI60 cancer cell lines, the anticancer activity entry is on record as “anticancer activity”. In the experiment on mouse xenograft, the tumor burden result is given as “reduced tumor burden”.
For the molecule `CNCCNC(=O)c1cccn2c(=O)c3ccc4ccccc4c3nc12` [Example 16, N-(2-(methylamino)ethyl)-7-oxo-7H-benzo[h]pyrido[2,1-b]quinazoline-12-carboxamide hydrochloride], the “Activity Range (pIC50)” value in the experiment with RPA194 is “+++ ((+++) with a pIC50 above 6.3)”.
The same measure, in the same setting: the value for `O=C(NCCN1CC[C@H](O)C1)c1cccn2c(=O)c3ccc4ccccc4c3nc12` [Example 2, (S)-N-(2-(3-hydroxypyrrolidin-1-yl)ethyl)-7-oxo-7H-benzo[h]pyrido[2,1-b]quinazoline-12-carboxamide; hydrochloride] was “+++ ((+++) with a pIC50 above 6.3)”.
The same measure, in the same setting: to `CCN(C)CCNC(=O)c1cccn2c(=O)c3ccc4ccccc4c3nc12` [Example 18, N-(2-(ethyl(methyl)amino)ethyl)-7-oxo-7H-benzo[h]pyrido[2,1-blquinazoline-12-carboxamide hydrochloride] belongs “+++ ((+++) with a pIC50 above 6.3)”.
Still for that read-out and setting: the value for `CN1CC(CNC(=O)c2cccn3c(=O)c4ccc5ccccc5c4nc23)C1` [Example 37, N-((1-methylazetidin-3-yl)methyl)-7-oxo-7H-benzo[h]pyrido[2,1-b]quinazoline-12-carboxamide; hydrochloride] was “+ ((+) is associated with a pIC50 5.02 to 5.8)”; that for `C[C@H](CN1CC[C@@H](O)C1)NC(=O)c1cccn2c(=O)c3ccc4ccccc4c3nc12` [Example 31, N-((R)-1-((R)-3-hydroxypyrrolidin-1-yl)propan-2-yl)-7-oxo-7H-benzo[h]pyrido[2,1-b]quinazoline-12-carboxamide hydrochloride] was “+++ ((+++) with a pIC50 above 6.3)”; that for `C[C@@H](CNC(=O)c1cccn2c(=O)c3ccc4ccccc4c3nc12)N(C)C` [Example 10, (S)-N-(2-(dimethylamino)propyl)-7-oxo-7H-benzo[h]pyrido[2,1-b]quinazoline-12-carboxamide; hydrochloride] was “++ ((++) with pIC50 5.8 to 6.3)”.
Consider `C[C@H](CN1C[C@H](O)[C@@H](O)C1)NC(=O)c1cccn2c(=O)c3ccc4ccccc4c3nc12` [Example 27, N-((R)-1-((3S,4S)-3,4-dihydroxy-pyrrolidin-1-yl)propan-2-yl)-7-oxo-7H-benzo[h]pyrido[2,1-b]quinazoline-12-carboxamide hydrochloride], for which the “Activity Range (pIC50)” value in the experiment with RPA194 is given as “++ ((++) with pIC50 5.8 to 6.3)”.
Regarding `CN(C)CCCNC(=O)c1cccn2c(=O)c3ccc4ccccc4c3nc12` [Example 38, N-(3-(dimethylamino)propyl)-7-oxo-7H-benzo[h]pyrido[2,1-b]quinazoline-12-carboxamide; hydrochloride], the “Activity Range (pIC50)” value in the experiment on RPA194 is “+ ((+) is associated with a pIC50 5.02 to 5.8)”.
For `C[C@@H](CN1CC[C@H](O)C1)NC(=O)c1cccn2c(=O)c3ccc4ccccc4c3nc12` [Example 28, N-((S)-1-((S)-3-hydroxypyrrolidin-1-yl)propan-2-yl)-7-oxo-7H-benzo[h]pyrido[2,1-b]quinazoline-12-[(2S)-2-aminopropyl] pyrrolidin-3-ol; hydrochloride (165 mg, carboxamide hydrochloride], the “Activity Range (pIC50)” value with RPA194 is listed as “++ ((++) with pIC50 5.8 to 6.3)”.
The same measure, in the same setting: the value for `O=C(NCCN1CC[C@@H](O)C1)c1cccn2c(=O)c3ccc4ccccc4c3nc12` [Example 3, (R)-N-(2-(3-hydroxypyrrolidin-1-yl)ethyl)-7-oxo-7H-benzo[h]pyrido[2,1-b]quinazoline-12-carboxamide; hydrochloride] was “+++ ((+++) with a pIC50 above 6.3)”; that for `CNC(C)CNC(=O)c1cccn2c(=O)c3ccc4ccccc4c3nc12` (single isomer, unassigned) [Example 20, (R or S)-N-(2-(methylamino)propyl)-7-oxo-7H-benzo[h]pyrido[2,1-b]quinazoline-12-carboxamide; hydrochloride] was “++ ((++) with pIC50 5.8 to 6.3)”; that for `C[C@@H](CN1CC[C@@H](O)C1)NC(=O)c1cccn2c(=O)c3ccc4ccccc4c3nc12` [Example 29, N-((S)-1-((R)-3-hydroxypyrrolidin-1-yl)propan-2-yl)-7-oxo-7H-benzo[h]pyrido[2,1-b]quinazoline-12-carboxamide hydrochloride] was “++ ((++) with pIC50 5.8 to 6.3)”.
The same measure, in the same setting: to `O=C(NCCN1CCCC1)c1cccn2c(=O)c3ccc4ccccc4c3nc12` [Example 4, 7-oxo-N-(2-(pyrrolidin-1-yl)ethyl)-7H-benzo[h]pyrido[2,1-b]quinazoline-12-carboxamide hydrochloride] belongs “+++ ((+++) with a pIC50 above 6.3)”.
